Laboratory results: patent US12600742B2, “Markers, conjugates, compositions and methods for hypoxia imaging, mapping, and therapy” (WWIKY BIOSCIENCES INC., priority 2017, dated 2026)

Key:
FaDu cells [1] = experiment: Hypoxia-selective sub-cellular localization of A-TPZ, click chemistry; format: cell-based, human
Procedure: FaDu cells (˜0.5 million) were seeded on coverslips in 30 mm dishes and were incubated overnight at 37° C. with 5% CO2 to get attached to the surface. Cells were then treated with increasing concentrations (1-30 μM) of drug (reconstituted in DMSO at concentration of 0.5 M) and were incubated under normoxic and hypoxic (<0.1% O2) conditions for 24 hours. Post-treatment, cells were fixed with 2% paraformaldehyde for 20 minutes followed by blocking and permeabilization in 1% BSA and 0.1% Triton-X-100 for 20 minutes. Click reaction was performed in the presence of Alexa 594 alkyne using the Click-iT Cell Reaction Buffer Kit (Thermo Fisher Scientific, no: C10269), according to manufacturer's protocol. Nuclei were counterstained with Hoechst, and images were obtained using confocal microscopy.
FaDu cells were seeded on coverslips and were incubated overnight to adhere. The cells were then treated with increasing doses of A-TPZ for 24 hours under normoxic and hypoxic (<0.1% O2) conditions. Cells were fixed in 2% paraformaldehyde and Click chemistry was performed at room temperature for 30 minutes using Alexa 594 alkyne. Nuclei were counterstained with Hoechst, and images were obtained using confocal microscopy.

FaDu cells [2] = experiment: Crystal violet staining (CVS) assay; format: cell-based, human
Procedure: FaDu cells (3000 cells/well) were seeded on 96-well microtitre plates and were incubated overnight at 37° C. with 5% CO2 to get attached to the surface. Next day, the cells were treated with increasing doses of drug (1-100 μM) and the plates were incubated under normoxic (20% O2) and hypoxic (0.1% O2) conditions for 72 hours. Culture medium (DMEM and low glucose DMEM) without cells was set for background, according to the experimental set up. After the required incubation period, the media was aspirated, and the plates were allowed to dry for a few minutes followed by addition of crystal violet solution for 20 minutes in order to stain the cells. Subsequently, the dye was discarded, plates were washed with water and let to dry overnight. Methanol (150 μL) was added to the wells and incubated for 20 minutes, so as to dissolve the crystals. Absorbance of the samples was measured spectrophotometrically using an ELISA plate reader at a wavelength of 520 nm. The absorbance of background wavelength (media only) was subtracted from the other absorbance results.
FIG. 10 depicts hypoxic selective cytotoxicity of A-TPZ. […] In CVS assay (i), FaDu cells (3000 cells/well) were seeded on 96 well plates and were incubated overnight to adhere. The cells were then treated with increasing doses of A-TPZ and the plates were exposed to both normoxic (20% O2) and hypoxic (0.1% O2) conditions for 72 hours. Culture medium (DMEM) without cells was set for background. Media was aspirated post-treatment followed by addition of crystal violet solution to stain the cells. Crystals were dissolved using methanol and absorbance of the samples was measured spectrophotometrically. Error bars represent the standard error of the mean. In CFA, (ii), FaDu cells (optimum density-ranging from 300 to 3000 cells) were seeded on 60 mm plates and were incubated overnight to adhere. Next day, the cells were treated with increasing A-TPZ doses and the plates were exposed to both normoxic (20% O2) and hypoxic (0.5% O2) conditions for 24 hours. […] Colonies were stained with crystal violet solution and counted. […]

[3] = test system: human and murine cancer cell lines; settings: literature; cited from earlier work
FaDu tumors = experiment: In vivo evaluation of radiosensitization therapy by IAZA using click mapping; parameters: species or system Nu/Nu mice
Procedure: Tissue sections were air dried for 25 minutes, fixed for 5 minutes in −20° C. acetone; air dried 25 minutes and blocked in PBS with 1% BSA for 20 minutes. Sections were incubated with primary antibodies for small vessel endothelium [1:100 rabbit anti-CD34 (abcam)] or hypoxia [1:100 rabbit anti-pimonidazole Hypoxyprobe)] for 2 hours at room temperature, followed by 3 five minute washes in 1×PBS. The secondary antibody (Alexafluor 647 goat anti-rabbit 1:1000 Molecular Probes with 1×DAPI to stain DNA) was incubated for 30 minutes at […] room temperature in the dark, followed by 3 five minute washes with 1×PBS. The Click-IT reaction cocktail was incubated with the sections for 30 minutes. Sections were washed 5 times with 1×PBS for 5 minutes and mounted using Mowiol 4-88 (Calbiochem) mounting media. Slides were stored at 4° C. until imaged. Images were obtained by tile scan with a Plan-Apochromat 10X/0.45 numerical aperture lens on a Zeiss 710 confocal microscope using Zen 2011 software. […]
Male Nu/Nu mice (Charles River Laboratories) aged 6 weeks were used and cared for according to the CCAC guidelines. […] The tumors were measured daily until the volume reached 0.4 cm3. […] Temperature and respiration were monitored and recorded every five minutes throughout the scans (Small animal Monitoring and Gating System, SA Instruments Inc.). […] Animals were monitored and tumors measured for up to 16 days. […]

FaDu cells [4] = experiment: Comparison of hypoxia selective uptake of ACN and Pimonidazole in vitro; format: cell-based, human
Procedure: FaDu cells were grown on coverslips (as described above) and treated simultaneously with 100 μM ACN and 100 μM Pimonidazole. The cells were subsequently exposed to normoxic (20% Oxygen), hypoxic (1% Oxygen) or anoxic (0% Oxygen) conditions for 6 hours, and fixed in 2% PFA. Standard Pimonidazole IHC was performed as described elsewhere using an Alexafluor 647 labelled secondary antibody. Click chemistry was performed as previously described using an Alexafluor 555 conjugated alkyne followed by nuclear staining with Hoechst. Mounted coverslips on glass slides were imaged as described earlier.

FaDu xenograft tumors = experiment: Assessment of ACN as a hypoxia tracer in tumor-bearing mice; format: in vivo, BALB/c nude mice; settings: 80 mg/Kg intraperitoneally, 2 hours post-injection
Procedure: Female BALB/c nude mice (Charles River Laboratories) aged 6 weeks were used and cared for according to the CCAC guidelines. We used a biflanked sub-cutaneous tumor model where the tumor in the left flank was untreated (control) and the tumor in the right flank served as the ‘treatment’ group. We subcutaneously injected 6×10^6 FaDu cells in 0.1 ml of sterile 0.9% NaCl into the upper right flank to form palpable tumors. The tumors were measured daily until the volume reached 10 mm3. The mice were divided into 4 groups and injected intraperitoneally in 0.15 ml 0.9% saline with: 1-80 mg/Kg ACN, 2-80 mg/Kg pimonidazole (Hypoxyprobe), 3-80 mg/Kg ACN:pimonidazole in a 1:1 ratio and 4-0.9% saline control. Mice were sacrificed 2 hours post-injection, tumors removed and frozen in OCT. Seven micron serial sections were taken of each tumor, dried and stored at −80° C.
Tissue sections were air dried for 25 minutes, fixed for 5 minutes in −20° C. acetone; air dried 25 minutes and blocked in PBS with 1% BSA for 20 minutes. Sections were incubated with primary antibodies for small vessel endothelium [1:100 rabbit anti-CD34 (abcam)] or hypoxia [1:100 rabbit anti-pimonidazole Hypoxyprobe)] for 2 hours at room temperature, followed by 3 five minute washes in 1×PBS. […]

For `[N-]=[N+]=NCCOCCNc1n[n+]([O-])c2ccccc2[n+]1[O-]` [A-TPZ, 3-(2-(2-Azidoethoxy)ethyl)amino-1,2,4-benzotriazine 1,4-dioxide], the “dose dependence of signal intensity” value (FaDu cells [1]; 1-30 μM, hypoxia) was “dose-dependent”, the “click fluorescence localization in hypoxic cells” value (FaDu cells [1]; hypoxia (<0.1 O2), 24 hours, 1-30 μM) was “selective sub-cellular localization” and the “click fluorescence in normoxic drug treated cells” value (FaDu cells [1]; normoxic, 24 hours) was “No fluorescence”. For the same compound, the “cytotoxicity under hypoxia (CVS)” value (FaDu cells [2]; 0.1% O2, 72 hours, 1-100 μM) was “selective cytotoxicity in low oxygen levels”, the “toxicity in the normoxic group (CVS)” value (FaDu cells [2]; 20% O2, 72 hours) was “minimal toxicity” and the “toxicity compared to parent compound TPZ” value (FaDu cells [2]; data not shown) was “slightly less toxic”.
In the case of `O=[N+]([O-])c1nccn1[C@@H]1O[C@H](C[125I])[C@@H](O)[C@@H]1O` [IAZA], the “toxicity to cancer cell lines (reported)” value [3] is listed as “low toxicity”, the “uptake by cells (reported)” value [3] is listed as “selectively taken up by hypoxic cells” and the “effect on tumor and hypoxia, IAZA and radiation co-treated” value (FaDu tumors; 400 mg/Kg IAZA + single dose of 10 Gy radiation) is listed as “both tumor shrinkage and reduced hypoxia”. For the same compound, the “effect on tumor hypoxia, IAZA alone” value (FaDu tumors; 400 mg/Kg IAZA intraperitoneally, no radiation, ACN click mapping) was “had no effect on hypoxia”.
With `O=[N+]([O-])c1nccn1CC(O)CN1CCCCC1` (stereo not shown) [Pimonidazole, reference compound] the “staining detected by oxygen condition” value (FaDu cells [4]; 100 μM of each compound, 6 h) was “detected in oxygen deprived cells”, the “sub-cellular distribution of signal” value (FaDu cells [4]; hypoxic <0.1% O2 cells, 100 μM) was “mostly concentrated in the cytoplasm” and the “localization in tumor sections” value (FaDu xenograft tumors) was “co-localize to hypoxic areas bordering necrotic regions”.
